Results: the kinase profiling compilation of Christmann-Franck et al. (2016)

What was measured:
Experiment in all cases: radiometric filter-binding kinase assay, Kinase HotSpot
Details in all cases: compound 0.5 µM; ATP 10 µM
NEK3 (human) = NEK3 (human) (UniProt P51956)
PBK (human) = PBK (human) (UniProt Q96KB5)
PLK1 (human) = PLK1 (human) (UniProt P53350)
PIM2 (human) = PIM2 (human) (UniProt Q9P1W9)
NEK2 (human) = NEK2 (human) (UniProt P51955)
NEK6 (human) = NEK6 (human) (UniProt Q9HC98)
OXSR1 (human) = OXSR1 (human) (UniProt O95747)
HCK (human) = HCK (human) (UniProt P08631)
TGFBR1 (human) = TGFBR1 (human) (UniProt P36897)
MAP3K8 (human) = MAP3K8 (human) (UniProt P41279)
RPS6KB1 (human) = RPS6KB1 (human) (UniProt P23443)
PIM3 (human) = PIM3 (human) (UniProt Q86V86)
TGFBR2 (human) = TGFBR2 (human) (UniProt P37173)
Chain of TGFBR2 (human) (P37173 whole entry, looked up): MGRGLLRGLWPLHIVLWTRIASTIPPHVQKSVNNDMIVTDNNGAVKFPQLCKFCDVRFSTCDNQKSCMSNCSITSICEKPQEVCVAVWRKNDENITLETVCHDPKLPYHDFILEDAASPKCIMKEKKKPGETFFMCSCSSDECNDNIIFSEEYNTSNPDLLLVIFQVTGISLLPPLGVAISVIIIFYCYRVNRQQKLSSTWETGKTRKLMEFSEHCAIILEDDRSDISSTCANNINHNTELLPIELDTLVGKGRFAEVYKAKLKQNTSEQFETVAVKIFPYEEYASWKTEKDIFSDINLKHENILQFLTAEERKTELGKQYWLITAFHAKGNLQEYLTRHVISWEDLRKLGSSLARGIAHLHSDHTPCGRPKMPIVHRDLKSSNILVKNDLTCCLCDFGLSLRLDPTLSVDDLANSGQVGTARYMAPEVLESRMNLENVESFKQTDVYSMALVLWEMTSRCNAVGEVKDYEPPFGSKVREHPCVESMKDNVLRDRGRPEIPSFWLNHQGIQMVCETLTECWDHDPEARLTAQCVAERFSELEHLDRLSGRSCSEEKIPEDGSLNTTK

ADRBK2 (human) = ADRBK2 (human) (UniProt P35626)
MYO3B (human) = MYO3B (human) (UniProt Q8WXR4)
NEK11 (human) = NEK11 (human) (UniProt Q8NG66)
BTK (human) = BTK (human) (UniProt Q06187)
Chain of BTK (human) (Q06187 whole entry, looked up): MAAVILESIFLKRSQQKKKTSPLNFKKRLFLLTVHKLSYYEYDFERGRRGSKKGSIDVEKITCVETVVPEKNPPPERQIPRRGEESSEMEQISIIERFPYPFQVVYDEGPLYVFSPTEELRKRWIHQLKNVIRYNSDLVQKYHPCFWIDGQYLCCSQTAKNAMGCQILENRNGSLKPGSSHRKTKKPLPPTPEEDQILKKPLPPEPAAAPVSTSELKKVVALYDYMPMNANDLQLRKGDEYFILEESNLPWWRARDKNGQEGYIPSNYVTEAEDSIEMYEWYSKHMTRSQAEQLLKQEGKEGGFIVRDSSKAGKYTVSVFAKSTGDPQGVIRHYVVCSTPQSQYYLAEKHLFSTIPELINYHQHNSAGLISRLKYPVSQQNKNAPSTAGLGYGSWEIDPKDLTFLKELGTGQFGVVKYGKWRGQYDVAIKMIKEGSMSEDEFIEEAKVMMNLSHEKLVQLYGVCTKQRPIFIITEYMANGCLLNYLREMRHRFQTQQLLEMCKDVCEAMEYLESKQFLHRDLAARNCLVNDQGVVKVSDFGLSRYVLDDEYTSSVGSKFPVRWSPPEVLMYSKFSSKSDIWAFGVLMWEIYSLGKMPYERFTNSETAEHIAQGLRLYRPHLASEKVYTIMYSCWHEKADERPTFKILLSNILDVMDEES

GRK4 (human) = GRK4 (human) (UniProt P32298)
ULK3 (human) = ULK3 (human) (UniProt Q6PHR2)
TAOK1 (human) = TAOK1 (human) (UniProt Q7L7X3)
[1] = molecular target: TYK2 JH1 catalytic (human) (UniProt P29597)
TXK (human) = TXK (human) (UniProt P42681)
FGFR4 (human) = FGFR4 (human) (UniProt P22455)
SIK2 (human) = SIK2 (human) (UniProt Q9H0K1)
Chain of SIK2 (human) (Q9H0K1 whole entry, looked up): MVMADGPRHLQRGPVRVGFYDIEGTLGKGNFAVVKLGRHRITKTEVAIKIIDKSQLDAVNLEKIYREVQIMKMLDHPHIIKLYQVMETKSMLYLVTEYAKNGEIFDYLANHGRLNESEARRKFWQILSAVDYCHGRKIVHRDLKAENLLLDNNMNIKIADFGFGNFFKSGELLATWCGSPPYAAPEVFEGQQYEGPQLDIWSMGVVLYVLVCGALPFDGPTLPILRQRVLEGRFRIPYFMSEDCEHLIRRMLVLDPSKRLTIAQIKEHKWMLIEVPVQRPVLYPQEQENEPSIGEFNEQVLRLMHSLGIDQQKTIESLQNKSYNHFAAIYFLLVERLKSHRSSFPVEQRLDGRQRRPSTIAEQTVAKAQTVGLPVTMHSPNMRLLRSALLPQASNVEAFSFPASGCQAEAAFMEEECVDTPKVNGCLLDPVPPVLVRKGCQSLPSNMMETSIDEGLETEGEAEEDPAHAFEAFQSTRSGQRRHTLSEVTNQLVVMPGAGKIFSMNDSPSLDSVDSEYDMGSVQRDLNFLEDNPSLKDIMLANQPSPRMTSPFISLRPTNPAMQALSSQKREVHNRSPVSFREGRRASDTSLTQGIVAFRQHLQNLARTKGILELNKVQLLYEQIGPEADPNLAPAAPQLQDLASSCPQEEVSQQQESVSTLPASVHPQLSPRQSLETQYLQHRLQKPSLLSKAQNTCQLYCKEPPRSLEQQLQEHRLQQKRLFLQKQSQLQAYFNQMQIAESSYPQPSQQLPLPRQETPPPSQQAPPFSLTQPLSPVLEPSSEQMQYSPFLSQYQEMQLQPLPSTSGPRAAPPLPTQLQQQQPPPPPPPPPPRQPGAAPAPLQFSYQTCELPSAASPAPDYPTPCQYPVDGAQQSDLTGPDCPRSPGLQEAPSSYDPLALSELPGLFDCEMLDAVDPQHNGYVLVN

MAPKAPK3 (human) = MAPKAPK3 (human) (UniProt Q16644)
TNK2 (human) = TNK2 (human) (UniProt Q07912)
PRKCA (human) = PRKCA (human) (UniProt P17252)
MAP2K1 (human) = MAP2K1 (human) (UniProt Q02750)
TYRO3 (human) = TYRO3 (human) (UniProt Q06418)
MAP3K5 (human) = MAP3K5 (human) (UniProt Q99683)
IRAK4 (human) = IRAK4 (human) (UniProt Q9NWZ3)
GRK7 (human) = GRK7 (human) (UniProt Q8WTQ7)
RPS6KA1 KD1 KD2 (human) = RPS6KA1 KD1 KD2 (human) (UniProt Q15418)
PRKD1 (human) = PRKD1 (human) (UniProt Q15139)
MARK4 (human) = MARK4 (human) (UniProt Q96L34)
Chain of MARK4 (human) (Q96L34 whole entry, looked up): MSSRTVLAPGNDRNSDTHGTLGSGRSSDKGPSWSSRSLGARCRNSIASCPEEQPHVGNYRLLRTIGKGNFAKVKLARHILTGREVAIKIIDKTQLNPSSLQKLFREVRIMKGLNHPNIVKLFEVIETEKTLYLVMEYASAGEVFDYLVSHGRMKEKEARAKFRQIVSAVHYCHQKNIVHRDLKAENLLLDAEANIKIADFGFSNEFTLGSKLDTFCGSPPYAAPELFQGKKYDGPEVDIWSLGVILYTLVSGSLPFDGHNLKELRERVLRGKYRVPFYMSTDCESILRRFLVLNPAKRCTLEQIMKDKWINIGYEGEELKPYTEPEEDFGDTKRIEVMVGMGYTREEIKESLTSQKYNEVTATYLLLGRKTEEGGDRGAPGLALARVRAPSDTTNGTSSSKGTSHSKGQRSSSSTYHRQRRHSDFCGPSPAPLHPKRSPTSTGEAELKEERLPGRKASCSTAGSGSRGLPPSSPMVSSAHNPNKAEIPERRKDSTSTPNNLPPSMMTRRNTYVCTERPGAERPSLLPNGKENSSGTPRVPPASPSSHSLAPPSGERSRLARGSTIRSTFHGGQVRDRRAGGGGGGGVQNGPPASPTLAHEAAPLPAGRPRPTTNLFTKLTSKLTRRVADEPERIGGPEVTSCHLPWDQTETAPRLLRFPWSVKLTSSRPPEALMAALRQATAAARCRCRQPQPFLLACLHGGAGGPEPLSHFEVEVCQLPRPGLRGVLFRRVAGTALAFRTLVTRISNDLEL

MAPK10 (human) = MAPK10 (human) (UniProt P53779)
YES1 (human) = YES1 (human) (UniProt P07947)
CHEK1 (human) = CHEK1 (human) (UniProt O14757)
PASK (human) = PASK (human) (UniProt Q96RG2)
CDK4 CCND3 (human) = CDK4 CCND3 (human) (UniProt P30281+P11802)
ITK (human) = ITK (human) (UniProt Q08881)
INSR (human) = INSR (human) (UniProt P06213)

Chain of PLK1 (human) (P53350 whole entry, looked up): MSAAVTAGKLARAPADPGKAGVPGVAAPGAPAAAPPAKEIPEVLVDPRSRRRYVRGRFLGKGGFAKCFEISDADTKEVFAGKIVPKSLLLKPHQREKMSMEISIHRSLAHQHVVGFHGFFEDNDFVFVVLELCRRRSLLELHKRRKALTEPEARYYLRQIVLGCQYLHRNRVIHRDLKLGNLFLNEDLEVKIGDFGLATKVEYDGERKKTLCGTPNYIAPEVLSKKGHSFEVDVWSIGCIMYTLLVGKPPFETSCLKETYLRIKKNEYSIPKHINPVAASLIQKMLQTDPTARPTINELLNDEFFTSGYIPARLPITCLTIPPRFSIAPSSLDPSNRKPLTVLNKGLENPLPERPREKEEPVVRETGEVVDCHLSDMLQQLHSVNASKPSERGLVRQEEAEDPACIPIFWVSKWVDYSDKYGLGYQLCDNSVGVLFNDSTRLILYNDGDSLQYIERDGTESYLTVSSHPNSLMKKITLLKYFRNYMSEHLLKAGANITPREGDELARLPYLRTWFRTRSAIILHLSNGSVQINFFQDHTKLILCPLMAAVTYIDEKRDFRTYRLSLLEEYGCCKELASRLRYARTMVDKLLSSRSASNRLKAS
Chain of NEK6 (human) (Q9HC98 whole entry, looked up): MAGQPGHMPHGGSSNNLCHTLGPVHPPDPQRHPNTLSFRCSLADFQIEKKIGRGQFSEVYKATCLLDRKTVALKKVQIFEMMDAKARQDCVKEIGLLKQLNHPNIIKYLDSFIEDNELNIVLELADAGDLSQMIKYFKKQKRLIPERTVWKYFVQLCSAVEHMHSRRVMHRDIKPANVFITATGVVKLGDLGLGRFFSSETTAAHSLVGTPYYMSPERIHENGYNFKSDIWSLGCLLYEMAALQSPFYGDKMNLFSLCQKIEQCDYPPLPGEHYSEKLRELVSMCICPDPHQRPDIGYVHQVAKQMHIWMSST

Structure (SMILES): CCN(CC)CCNC(=O)c1c(C)[nH]c(/C=C2\C(=O)Nc3ccc(F)cc32)c1C
- residual activity (NEK3 (human)): 91.6%
- residual activity (PBK (human)): 106%
- residual activity (PLK1 (human)): 96.4%
- residual activity (PIM2 (human)): 97.2%
- residual activity (NEK2 (human)): 106%
- residual activity (NEK6 (human)): 89%
- residual activity (OXSR1 (human)): 105%
- residual activity (HCK (human)): 40%
- residual activity (TGFBR1 (human)): 101%
- residual activity (MAP3K8 (human)): 117%
- residual activity (RPS6KB1 (human)): 42.3%
- residual activity (PIM3 (human)): 56.8%
- residual activity (TGFBR2 (human)): 92.5%
- residual activity (ADRBK2 (human)): 94.8%
- residual activity (MYO3B (human)): 54.5%
- residual activity (NEK11 (human)): 106%
- residual activity (BTK (human)): 50.2%
- residual activity (GRK4 (human)): 75.8%
- residual activity (ULK3 (human)): 57.4%
- residual activity (TAOK1 (human)): 71.5%
- residual activity [1]: 52.6%
- residual activity (TXK (human)): 92.6%
- residual activity (FGFR4 (human)): 92.5%
- residual activity (SIK2 (human)): 27.8%
- residual activity (MAPKAPK3 (human)): 102%
- residual activity (TNK2 (human)): 64.1%
- residual activity (PRKCA (human)): 79.9%
- residual activity (MAP2K1 (human)): 67.8%
- residual activity (TYRO3 (human)): 28.3%
- residual activity (MAP3K5 (human)): 100%
- residual activity (IRAK4 (human)): 27.4%
- residual activity (GRK7 (human)): 71.3%
- residual activity (RPS6KA1 KD1 KD2 (human)): 28%
- residual activity (PRKD1 (human)): 20%
- residual activity (MARK4 (human)): 24.7%
- residual activity (MAPK10 (human)): 99.5%
- residual activity (YES1 (human)): 5.91%
- residual activity (CHEK1 (human)): 29.2%
- residual activity (PASK (human)): 102%
- residual activity (CDK4 CCND3 (human)): 93%
- residual activity (ITK (human)): 64.3%

Structure (SMILES): Nc1ncnc2[nH]nc(Nc3ccc(F)cc3)c12
- residual activity (NEK3 (human)): 102%
- residual activity (PBK (human)): 87.6%
- residual activity (PLK1 (human)): 99.9%
- residual activity (PIM2 (human)): 89.3%
- residual activity (NEK2 (human)): 89.3%
- residual activity (NEK6 (human)): 102%
- residual activity (OXSR1 (human)): 110%
- residual activity (HCK (human)): 90.7%
- residual activity (MAP3K8 (human)): 99.7%
- residual activity (RPS6KB1 (human)): 94.3%
- residual activity (PIM3 (human)): 95%
- residual activity (TGFBR2 (human)): 101%
- residual activity (ADRBK2 (human)): 102%
- residual activity (MYO3B (human)): 87.9%
- residual activity (NEK11 (human)): 102%
- residual activity (INSR (human)): 98.5%
- residual activity (BTK (human)): 82.3%
- residual activity (GRK4 (human)): 98.8%
- residual activity (ULK3 (human)): 92.8%
- residual activity (TAOK1 (human)): 92%
- residual activity [1]: 92.3%
- residual activity (TXK (human)): 67.6%
- residual activity (FGFR4 (human)): 107%
- residual activity (SIK2 (human)): 78.7%
- residual activity (MAPKAPK3 (human)): 94%
- residual activity (TNK2 (human)): 61.5%
- residual activity (PRKCA (human)): 98%
- residual activity (MAP2K1 (human)): 101%
- residual activity (TYRO3 (human)): 100%
- residual activity (MAP3K5 (human)): 111%
- residual activity (IRAK4 (human)): 88.3%
- residual activity (GRK7 (human)): 105%
- residual activity (RPS6KA1 KD1 KD2 (human)): 82.2%
- residual activity (PRKD1 (human)): 98.9%
- residual activity (MARK4 (human)): 99.4%
- residual activity (MAPK10 (human)): 100%
- residual activity (YES1 (human)): 92.9%
- residual activity (CHEK1 (human)): 88%
- residual activity (PASK (human)): 91.8%
- residual activity (CDK4 CCND3 (human)): 111%
- residual activity (ITK (human)): 93.9%

Structure (SMILES): Cc1ccc(Nc2nccc(N(C)c3ccc4c(C)n(C)nc4c3)n2)cc1S(N)(=O)=O
- residual activity (NEK3 (human)): 94.2%
- residual activity (PBK (human)): 101%
- residual activity (PLK1 (human)): 99.5%
- residual activity (PIM2 (human)): 101%
- residual activity (NEK2 (human)): 110%
- residual activity (NEK6 (human)): 96.1%
- residual activity (OXSR1 (human)): 103%
- residual activity (HCK (human)): 64.8%
- residual activity (TGFBR1 (human)): 103%
- residual activity (MAP3K8 (human)): 95.2%
- residual activity (RPS6KB1 (human)): 96%
- residual activity (PIM3 (human)): 81.6%
- residual activity (TGFBR2 (human)): 100%
- residual activity (ADRBK2 (human)): 99.3%
- residual activity (MYO3B (human)): 83.4%
- residual activity (NEK11 (human)): 94.8%
- residual activity (INSR (human)): 107%
- residual activity (BTK (human)): 78.8%
- residual activity (GRK4 (human)): 91.7%
- residual activity (ULK3 (human)): 102%
- residual activity (TAOK1 (human)): 28.9%
- residual activity [1]: 94%
- residual activity (TXK (human)): 40.2%
- residual activity (FGFR4 (human)): 68.3%
- residual activity (SIK2 (human)): 84.1%
- residual activity (MAPKAPK3 (human)): 98.5%
- residual activity (TNK2 (human)): 90.2%
- residual activity (PRKCA (human)): 94.4%
- residual activity (MAP2K1 (human)): 106%
- residual activity (TYRO3 (human)): 92%
- residual activity (MAP3K5 (human)): 102%
- residual activity (IRAK4 (human)): 98.4%
- residual activity (GRK7 (human)): 96.5%
- residual activity (RPS6KA1 KD1 KD2 (human)): 92.8%
- residual activity (PRKD1 (human)): 96.9%
- residual activity (MARK4 (human)): 98%
- residual activity (YES1 (human)): 52.6%
- residual activity (CHEK1 (human)): 110%
- residual activity (PASK (human)): 101%
- residual activity (CDK4 CCND3 (human)): 96%
- residual activity (ITK (human)): 115%
